In patent publication US20130217721A1, “COMPOSITIONS AND METHODS FOR DETECTION AND TREATMENT OF B-RAF INHIBITOR-RESISTANT MELANOMAS” (The Regents of the University of California, priority 2010, published 2013):
“And” between values parts separate entries of the source, which are not always exact repeats. Identical values can stand only once. “Also recorded” adds a separate entry of the source.

What was measured:
p61 BRAF(V600E/R509H) = p61 BRAF(V600E/R509H) (Homo sapiens, UniProt P15056, DEL169-380/R509H/V600E); experiment: ERK signaling in 293H cells expressing p61 BRAF(V600E/R509H); format: cell-based; conditions: 2 μM PLX4032 for 1 hour
Description: (§1) FIGS. 6A-6E. […] FIG. 6A. PCR analysis of BRAF in cDNA from parental (P) and C3 cells. Primers were designed at the N-terminus and C-terminus of BRAF. […] Abbreviations: CR1: Conserved Region 1, CR2: Conserved Region 2, CR3: Conserved Region 3, RBD: RAS-binding domain, CRD: Cystine-Rich Domain, AS: Activation Segment, KD: Kinase Domain. FIG. 6B. Full length wild-type BRAF and the 1.7 kb/61 kd splice variant of BRAF(V600E) were cloned into a pcDNA3.1 vector with a FLAG tag at the C-terminus and expressed in 293H cells. The effect of PLX4032 (2 μM for 1 hour) on ERK signaling in the presence of p61 BRAF(V600E) was analyzed by western blot for pMEK and pERK. FIG. 6C. To compare levels of dimerization, 293H cells co-expressing FLAG tagged and V5-tagged p61 BRAF(V600E), full length BRAF(V600E) and the corresponding dimerization-deficient mutants p61 BRAF(V600E/R509H) and BRAF(V600E/R509H) were lysed followed by immunoprecipitation with FLAG antibody. Western blots with V5 or FLAG antibodies were performed as indicated. FIG. 6D. Comparison of MEK/ERK activation and sensitivity of ERK signaling to PLX4032 (2 μM for 1 hour) in 293H cells expressing either Flag-tagged BRAF(V600E) or the dimerization mutant Flag-tagged BRAF(V600E/R509H). FIG. 6E. […]

BRAF(V600E/R509H) = BRAF(V600E/R509H) (Homo sapiens, UniProt P15056, R509H/V600E); experiment: ERK signaling in 293H cells expressing BRAF(V600E/R509H); format: cell-based; conditions: 2 μM PLX4032 for 1 hour
Description: as §1

melanoma tumors = experiment: Melanoma patients treated with vemurafenib (PLX4032): best response and PFS (Table 5); format: in vivo, human; conditions: individual patient; patients 1-19 acquired resistance, 20-21 primary resistant
[1] = tested on: M395 P over-expressing V600EB-RAF; experiment: Cell survival assay (72 h) with V600EB-RAF over-expression; format: cell-based, human
Experimental: FIGS. 9A-9C. ^V600EB-RAF levels modulate melanoma sensitivity to vemurafenib. […] Dashed line, 50% inhibition. […] FIG. 9C, Increasing (in M395 P) or decreasing (in M395 R) BRAF^V600E levels decreased or increased pERK sensitivity to PLX4032 (0, 0.1, 1, 10 μM) treatments for 1 h, respectively.
(§2) Cell culture, infections and drug treatments. Cells were maintained in DMEM with 10 or 20% fetal bovine serum and glutamine. shRNAs for B-RAF and C-RAF were sub-cloned into the lentiviral vector pLL3.7; pBabe B-RAF (V600E) was purchase (plasmid 17544, Addgene); viral supernatants generated by co-transfection with three packaging plasm ids into HEK293T cells; and infections carried out with protamine sulfate. Stocks and dilutions of PLX4032 (Plexxikon, Berkeley, Calif.) and AZD6244 (commercially available) were made in DMSO. Cells were quantified using CellTiter-GLO Luminescence (Promega) or crystal violet staining followed by NIH Image J quantification.

SKMEL-239 = experiment: Cell cycle and apoptosis analysis; format: cell-based, human; conditions: SKMEL-239 parental, 2 μM PLX4032
Experimental: Cell proliferation and cell cycle analysis. All melanoma cell lines were generated by A. Houghton (MSKCC) or obtained from ATCC. 293H cells were obtained from Invitrogen. Cells were maintained in DMEM (293H and MEFs), or RPMI (all other cell lines) supplemented with 2 mM glutamine, antibiotics and 10% fetal bovine serum. We confirmed by DNA fingerprinting^20 that all PLX4032-resistant, SKMEL-239 clones were derived from the same patient, thus excluding the possibility of contamination (Table 6). For proliferation assays, cells were plated in 6 well plates and 24 hours later were treated with varying concentrations of inhibitors as indicated. IC50 values were calculated using Graph Pad Prism v.5. For cell cycle and apoptosis studies, cells were seeded in 6 well dishes the day prior to drug treatment. For analysis, both adherent and floating cells were harvested and stained with ethidium bromide as described previously^21.

[2] = tested on: M229, M238 and M249 parental cell lines; conditions: B-RAF(V600E)-positive parental cell lines, in vitro and in vivo; cited from earlier work
[3] = tested on: ERK signaling (pMEK, pERK); experiment: Western blot of ERK signaling (pMEK, pERK) in SKMEL-239 parental cells and resistant clones
Experimental: PLX4032 IC50 curves (at 5 days) for the SKMEL-239 parental cell line and five PLX4032-resistant clones. […] Western blot for components of the ERK and AKT signaling pathways in parental and resistant clones (2 μM PLX4032/24 hours). […] Dose-response of pMEK and pERK downregulation at 1 hour to increasing concentrations of PLX4032 in parental and two representative resistant clones (C3 and C5). […] Graphic representation of the chemiluminescent signal intensities from 5D and determination of IC50s for inhibition of MEK phosphorylation by PLX4032 in the parental and C3 and C5 clones.
Western blotting and receptor tyrosine kinase (RTK) arrays. […] The following antibodies were used: p217/p221-MEK (pMEK), p202/p204-ERK (pERK), MEK, ERK, (Cell Signaling), V5 tag (Invitrogen), BRAF, cyclin Flag tag, β-actin (Sigma). […] Membranes were exposed to chemiluminescent reagents and images captured using the ImageQuant LAS 4000 instrument (GE HealthCare).

B-RAF(V600E) kinase = B-RAF(V600E) kinase (Homo sapiens, UniProt P15056, V600E); experiment: In vitro kinase assay of immunoprecipitated B-RAF; format: biochemical; conditions: from resistant sub-lines and short-term cultures compared with parental cell lines; 1 μM PLX4032, 30 min at 30° C.
Description: Cells were harvested and protein lysates prepared in a NP40-based buffer before subjected to immunoprecipitation (IP). […] The beads were subsequently pelleted and the supernatant resuspended in sample buffer for western blotting to detect p-MEK and total MEK.

pERK levels in M395 R = experiment: Western blot of pERK after acute vemurafenib titration; format: cell-based, human; conditions: vemurafenib titration 1 h after a 24 h drug withdrawal
M395 R = experiment: Cell survival assay (72 h); format: cell-based, human
Description: as §2

p61 BRAF(V600E) = p61 BRAF(V600E) (Homo sapiens, UniProt P15056, DEL169-380/V600E); experiment: ERK signaling in cells ectopically expressing p61 BRAF(V600E); format: cell-based
Description: FIGS. 6A-6E. […] FIG. 6A. PCR analysis of BRAF in cDNA from parental (P) and C3 cells. Primers were designed at the N-terminus and C-terminus of BRAF. […] Abbreviations: CR1: Conserved Region 1, CR2: Conserved Region 2, CR3: Conserved Region 3, RBD: RAS-binding domain, CRD: Cystine-Rich Domain, AS: Activation Segment, KD: Kinase Domain. FIG. 6B. Full length wild-type BRAF and the 1.7 kb/61 kd splice variant of BRAF(V600E) were cloned into a pcDNA3.1 vector with a FLAG tag at the C-terminus and expressed in 293H cells. The effect of PLX4032 (2 μM for 1 hour) on ERK signaling in the presence of p61 BRAF(V600E) was analyzed by western blot for pMEK and pERK. FIG. 6C. To compare levels of dimerization, 293H cells co-expressing FLAG tagged and V5-tagged p61 BRAF(V600E), full length BRAF(V600E) and the corresponding dimerization-deficient mutants p61 BRAF(V600E/R509H) and BRAF(V600E/R509H) were lysed followed by immunoprecipitation with FLAG antibody. Western blots with V5 or FLAG antibodies were performed as indicated. FIG. 6D. Comparison of MEK/ERK activation and sensitivity of ERK signaling to PLX4032 (2 μM for 1 hour) in 293H cells expressing either Flag-tagged BRAF(V600E) or the dimerization mutant Flag-tagged BRAF(V600E/R509H). FIG. 6E. Constructs expressing V5-tagged BRAF(V600E), p61 BRAF(V600E) or the dimerization mutant p61 BRAF(V600E/R509H) were transfected into 293H cells and treated with DMSO or 2 μM PLX4032 for 1 hour.
Plasmids/Trasfections. Flag-tagged BRAF constructs have been described previously^4. All other plasmids were created using standard cloning methods, with pcDNA3.1 (Invitrogen) as a vector. Mutations were introduced using the site-directed Mutagenesis Kit (Stratagene). For transfection studies, cells were seeded at 35 mm or 100 mm plates and transfected the following day using Lipofectamine 2000 (Invitrogen). Cells were collected 24 hours later for subsequent analysis.

p61 BRAF(V600E), sequence (P15056 with tags, fused parts or gaps DEL169-380/V600E): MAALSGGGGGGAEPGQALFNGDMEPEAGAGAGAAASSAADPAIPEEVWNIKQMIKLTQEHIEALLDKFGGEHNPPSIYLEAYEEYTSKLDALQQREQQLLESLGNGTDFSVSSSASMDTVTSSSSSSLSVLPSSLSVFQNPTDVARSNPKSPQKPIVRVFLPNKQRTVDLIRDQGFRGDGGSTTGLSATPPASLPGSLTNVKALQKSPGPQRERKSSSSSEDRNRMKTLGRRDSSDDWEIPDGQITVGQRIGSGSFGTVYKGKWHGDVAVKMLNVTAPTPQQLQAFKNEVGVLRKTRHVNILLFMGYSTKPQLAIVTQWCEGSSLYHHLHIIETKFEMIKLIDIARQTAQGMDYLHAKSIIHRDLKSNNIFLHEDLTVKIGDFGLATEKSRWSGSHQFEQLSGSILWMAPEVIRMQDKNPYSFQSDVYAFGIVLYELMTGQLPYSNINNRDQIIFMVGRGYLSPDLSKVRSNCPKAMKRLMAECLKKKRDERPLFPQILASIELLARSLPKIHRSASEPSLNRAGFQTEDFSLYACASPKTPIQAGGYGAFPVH
BRAF(V600E/R509H), sequence (P15056 whole entry R509H/V600E): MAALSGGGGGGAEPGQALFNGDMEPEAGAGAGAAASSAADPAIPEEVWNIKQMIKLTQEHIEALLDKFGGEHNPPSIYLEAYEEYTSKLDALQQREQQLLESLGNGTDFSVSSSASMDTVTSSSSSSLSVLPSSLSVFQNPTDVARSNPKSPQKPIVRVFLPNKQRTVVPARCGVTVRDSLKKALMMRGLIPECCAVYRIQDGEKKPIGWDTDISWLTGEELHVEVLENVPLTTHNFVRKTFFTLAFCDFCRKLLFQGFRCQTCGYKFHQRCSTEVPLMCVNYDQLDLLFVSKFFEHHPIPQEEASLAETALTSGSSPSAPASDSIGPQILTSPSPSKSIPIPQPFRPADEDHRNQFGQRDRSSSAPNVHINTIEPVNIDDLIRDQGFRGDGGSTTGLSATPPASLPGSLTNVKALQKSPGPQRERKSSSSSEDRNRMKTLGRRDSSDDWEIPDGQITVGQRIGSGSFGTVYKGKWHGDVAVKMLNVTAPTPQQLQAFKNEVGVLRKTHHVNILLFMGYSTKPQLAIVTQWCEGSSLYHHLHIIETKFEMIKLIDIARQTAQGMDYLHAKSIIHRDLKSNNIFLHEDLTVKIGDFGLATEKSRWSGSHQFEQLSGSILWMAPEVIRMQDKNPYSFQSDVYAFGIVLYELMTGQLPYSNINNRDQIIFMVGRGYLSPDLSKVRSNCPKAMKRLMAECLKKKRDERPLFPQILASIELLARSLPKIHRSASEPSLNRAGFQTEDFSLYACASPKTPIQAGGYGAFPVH
p61 BRAF(V600E/R509H), sequence (P15056 with tags, fused parts or gaps DEL169-380/R509H/V600E): as the sequence (P15056 with tags, fused parts or gaps DEL169-380/V600E) above, with R297H counted along it
B-RAF(V600E) kinase, sequence (P15056 whole entry V600E): as the sequence (P15056 whole entry R509H/V600E) above, with H509R counted along it

CCCS(=O)(=O)Nc1ccc(F)c(C(=O)c2c[nH]c3ncc(-c4ccc(Cl)cc4)cc23)c1F [PLX4032]
ERK signaling (p61 BRAF(V600E/R509H)): inhibited | sensitivity of ERK signaling (BRAF(V600E/R509H)): remained sensitive | Best Response (melanoma tumors): −72% (2×) and −20% and −70% (2×) and −22% and −53% (2×) and −31% (2×) and −60% and −47% and −43% and −25% and −74% and −24% and −37% and −100% and −42% and +8% | PFS (melanoma tumors): 464 days and 304 days and 104 days and 161 days and 137 days and 238 days and 212 days and 373 days and 148 days and 299 days and 107 days and 149 days and 126 days and 279 days and 118 days and 241 days and 168 days (2×) and 79 days and 50 days and 106 days | vemurafenib resistance conferred by V600EB-RAF over-expression [1]: highly saturable by micromolar concentrations | cell cycle effect (SKMEL-239): accumulation of cells in G1 | cell death (SKMEL-239): significant induction of cell death | sensitivity to PLX4032-mediated growth inhibition [2]: exquisitely sensitive | sensitivity of ERK signaling to the drug ([3]; PLX4032-resistant SKMEL-239 clones): decreased sensitivity | IC50 for pMEK inhibition relative to the parental cell line ([3]; SKMEL-239 C3 clone, 1 hour): more than 100 fold | pMEK IC50 relative to the parental cell line ([3]; SKMEL-239 C5 clone, 1 hour): 4.5 fold | inhibition of ERK signaling ([3]; SKMEL-239 parental, 2 μM PLX4032): effectively inhibits | sensitivity of immunoprecipitated B-RAF kinase activities (B-RAF(V600E) kinase): similarly sensitive | pERK levels, sensitivity to acute V600EB-RAF inhibition (pERK levels in M395 R): highly resistant | growth sensitivity to vemurafenib treatment (M395 R; M395 R (amplified V600EB-RAF)): highly resistant | drug sensitivity at high vemurafenib dosing (M395 R; vemurafenib from 1 to 50 µM, 72 h, versus M249 R4): highly sensitive | sensitivity of ERK signaling (pMEK, pERK) (p61 BRAF(V600E); 293H cells, 2 μM PLX4032 for 1 hour): resistant; also recorded: insensitive | inhibition of ERK signaling (p61 BRAF(V600E); HT-29 (BRAF(V600E)) colorectal carcinoma cells expressing p61 BRAF(V600E)): failure of PLX4032 to effectively inhibit ERK signaling | inhibition of ERK signaling (p61 BRAF(V600E); parental SKMEL-239 cells expressing p61 BRAF(V600E)): failure of PLX4032 to effectively inhibit ERK signaling
